For data set [1], the target named is T1, μ-opioid receptor (Homo sapiens (Human), UniProt P35372). As to the kind of experiment: [35S]GTPγS μ-opioid receptor functional assay. Type of data set: biochemical. Particulars: for functional profile at μ-opioid receptor (in words): conclusion from Table 23.
The target in data set [2] is T1, μ-opioid receptor. Type of data set: binding.
The nature of data set [3]: Hydrolysis in pH buffer/EtOH solutions. In kind it is physicochemical.
Data set [4] in a line: Hydrolysis in HCl solutions. Type of data set: physicochemical. As to conditions: 6,14-bis-lauroyl-Oxycodone, 1.0N HCl (75% EtOH).
The nature of data set [5]: Hydrolysis in simulated intestinal fluid at 37° C. As to conditions: for 6-lauroyl-Oxy (%): 6-lauroyl-Oxycodone, simulated intestinal fluid with 0.5% Polysorbate 80, 37° C.
Data set [6] can be described thus: Hydrolysis in human blood serum at 37° C. As to conditions: human blood serum (37° C.).
The mark [7] stands for this setting: 6,14-bis-lauroyl-Oxycodone, pH 7 buffer (75% EtOH), 0 h.
Setting [8] is: 6,14-bis-lauroyl-Oxycodone, pH 7 buffer (75% EtOH), 0.5 h.
Setting [9] is: 6,14-bis-lauroyl-Oxycodone, pH 7 buffer (75% EtOH), 2 h.
Where [10] appears, read: 6,14-bis-lauroyl-Oxycodone, pH 7 buffer (75% EtOH), 4 h.
The mark [11] stands for this setting: 6,14-bis-lauroyl-Oxycodone, pH 7 buffer (75% EtOH), 8 h.
Setting [12] is: 6,14-bis-lauroyl-Oxycodone, pH 7 buffer (75% EtOH), 24 h.
Setting [13] is: 6,14-bis-lauroyl-Oxycodone, pH 9 buffer (75% EtOH), 0 h.
Setting [14] is: 6,14-bis-lauroyl-Oxycodone, pH 9 buffer (75% EtOH), 0.5 h.
The mark [15] stands for this setting: 6,14-bis-lauroyl-Oxycodone, pH 9 buffer (75% EtOH), 2 h.
Setting [16] is: 6,14-bis-lauroyl-Oxycodone, pH 9 buffer (75% EtOH), 8.5 h.
[17] abbreviates: 6,14-bis-lauroyl-Oxycodone, pH 9 buffer (75% EtOH), 22.5 h.
The mark [18] stands for this setting: 6,14-bis-lauroyl-Oxycodone, pH 11 buffer (75% EtOH), 0 h.
Setting [19] is: 6,14-bis-lauroyl-Oxycodone, pH 11 buffer (75% EtOH), 0.17 h.
[20] abbreviates: 6,14-bis-lauroyl-Oxycodone, pH 11 buffer (75% EtOH), 0.5 h.
Where [21] appears, read: 6,14-bis-lauroyl-Oxycodone, pH 11 buffer (75% EtOH), 2 h.
The mark [22] stands for this setting: 6,14-bis-lauroyl-Oxycodone, pH 11 buffer (75% EtOH), 8.5 h.
Setting [23] is: 6,14-bis-lauroyl-Oxycodone, pH 11 buffer (75% EtOH), 22.5 h.
Where [24] appears, read: 6-lauroyl-Oxycodone, pH 9 buffer (75% EtOH), 0 h.
[25] abbreviates: 6-lauroyl-Oxycodone, pH 9 buffer (75% EtOH), 0.5 h.
Where [26] appears, read: 6-lauroyl-Oxycodone, pH 9 buffer (75% EtOH), 2 h.
[27] abbreviates: 6-lauroyl-Oxycodone, pH 9 buffer (75% EtOH), 4 h.
Setting [28] is: 6-lauroyl-Oxycodone, pH 9 buffer (75% EtOH), 8 h.
Where [29] appears, read: 6-lauroyl-Oxycodone, pH 11 buffer (75% EtOH), 0 h.
The mark [30] stands for this setting: 6-lauroyl-Oxycodone, pH 11 buffer (75% EtOH), 0.5 h.
[31] abbreviates: 6-lauroyl-Oxycodone, pH 11 buffer (75% EtOH), 4 h.
Where [32] appears, read: 6-lauroyl-Oxycodone, pH 11 buffer (75% EtOH), 8 h.

Take `CCCCCCCCCCCC(=O)O[C@@]12CCC(=O)C3Oc4c(OC)ccc5c4[C@@]31CCN(C)[C@@H]2C5` (some centres unmarked) [14-lauroyl oxycodone]: at μ-opioid receptor [1] (Conc. 100 μM, criteria ≥± 50%), the “% Response Agonist” value stood at 56% and the “% Response Antagonist” value is listed as 56%. Moreover, the “functional profile at μ-opioid receptor (in words)” value at μ-opioid receptor [1] is “partial agonist and a partial antagonist”.
`COCCOCCOCC(=O)OC1=CC[C@@]2(O)[C@H]3Cc4ccc(OC)c5c4[C@@]2(CCN3C)C1O5` (some centres unmarked) [6-PEG oxycodone]: at μ-opioid receptor [2], the Ki turned out to be 22 nM and the “Ki compared with that of oxycodone (in words)” value (“Ki compared with that” for short) is “comparable”. The concentration giving a half-maximal response (EC50) on μ-opioid receptor [1] came to 390 nM. In addition, at μ-opioid receptor [1] (Conc. 3 μM, criteria ≥± 50%), the “% Response Agonist” value is recorded as 90%.
For the molecule `COc1ccc2c3c1OC1C(=O)CCC4(OC(C)=O)C(C2)N(C)CCC314` (centres unmarked) [14-acetyl oxycodone], the “% Response Agonist” value at μ-opioid receptor [1] (Conc. 3 μM, criteria ≥± 50%) is 79%. The “functional profile at μ-opioid receptor (in words)” value on μ-opioid receptor [1] is “μ-receptor agonist as effective as oxycodone”.
For the molecule `CCCCCCCCCCCC(=O)OC1=CC[C@@]2(OC(=O)CCCCCCCCCCC)[C@H]3Cc4ccc(OC)c5c4[C@@]2(CCN3C)C1O5` (some centres unmarked) [6,14-bis-lauroyl oxycodone], the “6,14-bis-lauroyl-Oxy (%)” value came to 99% in data set [3] (setting [7]); 98% in data set [3] (setting [8]); 98% in data set [3] (setting [9]); 98% in data set [3] (setting [10]); 98% in data set [3] (setting [11]); 94.3% in data set [3] (setting [12]). Further, the “6,14-bis-lauroyl-Oxy (%)” value in data set [3] (setting [13]) is 99%; in data set [3] (setting [14]) it was 98.7%; in data set [3] (setting [15]), 98.4%; in data set [3] (setting [16]), 96.2%; in data set [3] (setting [17]), 93.4%; in data set [3] (setting [18]) it was 99%. Further, the “6,14-bis-lauroyl-Oxy (%)” value amounted to 83.7% in data set [3] (setting [19]); 63.9% in data set [3] (setting [20]); 14.7% in data set [3] (setting [21]); 0% in data set [3] (setting [22]); 0% in data set [3] (setting [23]); 99% in data set [4] (0 h). Besides, the “6,14-bis-lauroyl-Oxy (%)” value in data set [4] (0.5 h) was 97%; in data set [4] (2 h), 95.1%; in data set [4] (4 h) it was 94%; in data set [4] (8 h), 91.4%; in data set [4] (24 h), 77.1%. Further, the “Oxy (%)” value in data set [3] (setting [7]), in data set [3] (setting [8]), in data set [3] (setting [9]), in data set [3] (setting [10]), in data set [3] (setting [11]) and in data set [3] (setting [12]) was 0% in each case. In addition, the “Oxy (%)” value in data set [3] (setting [13]), in data set [3] (setting [14]), in data set [3] (setting [15]), in data set [3] (setting [16]), in data set [3] (setting [17]) and in data set [3] (setting [18]) was 0% in each case. In addition, the “Oxy (%)” value turned out to be 0.5% in data set [3] (setting [19]); 1% in data set [3] (setting [20]); 2.8% in data set [3] (setting [21]); 5.4% in data set [3] (setting [22]); 10.2% in data set [3] (setting [23]); 0% in data set [4] (0 h). The “Oxy (%)” value in data set [4] (0.5 h), in data set [4] (2 h), in data set [4] (4 h), in data set [4] (8 h) and in data set [4] (24 h) was 0% throughout. The “mono-lauroyl-Oxy (%)” value was determined as 0% in data set [3] (setting [7]); 1% in data set [3] (setting [8]); 2% in data set [3] (setting [9]); 2% in data set [3] (setting [10]); 2% in data set [3] (setting [11]); 5.7% in data set [3] (setting [12]). Also, the “mono-lauroyl-Oxy (%)” value in data set [3] (setting [13]) amounted to 0%; in data set [3] (setting [14]), 1.3%; in data set [3] (setting [15]) it was 1.6%; in data set [3] (setting [16]) it was 3.8%; in data set [3] (setting [17]) it was 6.6%; in data set [3] (setting [18]) it was 0%. In addition, the “mono-lauroyl-Oxy (%)” value in data set [3] (setting [19]) stood at 16.3%; in data set [3] (setting [20]), 33.1%; in data set [3] (setting [21]), 60.5%; in data set [3] (setting [22]), 94.6%; in data set [3] (setting [23]), 89.8%; in data set [4] (0 h), 0%. Moreover, the “mono-lauroyl-Oxy (%)” value in data set [4] (0.5 h) is 2.9%; in data set [4] (2 h), 4.7%; in data set [4] (4 h) it was 6%; in data set [4] (8 h) it was 8.6%; in data set [4] (24 h), 22.9%. Further, at μ-opioid receptor [2], the inhibition constant (Ki) is 22200 nM. In addition, the “Ki compared with that” value at μ-opioid receptor [2] is on record as “significantly higher”. Besides, at μ-opioid receptor [2], the “binding to μ-opioid receptor (in words)” value is reported as “does not bind to μ-opioid receptor well”.
For `CCCCCCCCCCCC(=O)OC1=CC[C@@]2(O)[C@H]3Cc4ccc(OC)c5c4[C@@]2(CCN3C)C1O5` (some centres unmarked) [6-lauroyl oxycodone], the “6-lauroyl-Oxy (%)” value worked out at 99% in data set [3] (setting [24]); 98% in data set [3] (setting [25]); 98% in data set [3] (setting [26]); 98% in data set [3] (setting [27]); 98% in data set [3] (setting [28]); 99% in data set [3] (setting [29]). In addition, the “6-lauroyl-Oxy (%)” value in data set [3] (setting [30]) is on record as 24.5%; in data set [3] (setting [31]), 7.2%; in data set [3] (setting [32]), 6.2%; in data set [5] (0 h), 99%; in data set [5] (0.17 h) it was 56.9%; in data set [5] (0.5 h) it was 54.8%. For the same molecule, the “6-lauroyl-Oxy (%)” value in data set [5] (1 h) is given as 52.6%; in data set [5] (2 h), 50.8%; in data set [5] (with additional fresh intestinal fluid 30 min), 18.6%. In addition, the “Oxy (%)” value stood at 0% in data set [3] (setting [24]); 1% in data set [3] (setting [25]); 1% in data set [3] (setting [26]); 1% in data set [3] (setting [27]); 1% in data set [3] (setting [28]); 0% in data set [3] (setting [29]). The results for the “Oxy (%)” value in data set [3] (setting [30]), in data set [3] (setting [31]) and in data set [3] (setting [32]) were 75.5%, 92.8% and 93.8%, respectively. This molecule displayed an inhibition constant (Ki) on μ-opioid receptor [2] of 96 nM. In addition, on μ-opioid receptor [2], the “Ki compared with that” value is “comparable”. At μ-opioid receptor [1], the response was half-maximal at 990 nM (EC50). Further, the “% Response Agonist” value at μ-opioid receptor [1] (Conc. 3 μM, criteria ≥± 50%) was 52%.
For the molecule `COc1ccc2c3c1OC1C(OC(C)=O)=CCC4[C@@H](C2)N(C)CC[C@]314` (some centres unmarked) [6-acetyl hydrocodone], the “hydrolysis in human blood serum (in words)” value in data set [6] is “hydrolyzed quickly”. Moreover, the “% hydrolyzed to hydrocodone” value is reported as 99% in data set [6] (30 minutes) and 70% in data set [6] (five minutes).
On to `COc1ccc2c3c1OC1C(OC(C)=O)=CC[C@@]4(OC(C)=O)[C@@H](C2)N(C)CC[C@]314` (some centres unmarked) [6,14-Diacetyl oxycodone, 6,14-bis-acetyl Oxycodone], for which, in data set [5] (mixture in simulated intestinal fluid (37° C., pH 6.8, pancreatine)), the “hydrolysis products (in words)” value is “hydrolyzes to create additional 6-acetyl oxycodone and 14-acetyl oxycodone”.

Values taken from patent publication US11845759B2, “Opioid compounds and uses thereof” (priority 2018, dated 2023).
